Experimental findings from patent US5834288A, “KDN-specific deminoneuraminidase from Sphingobacterium multivorum” (Seikagaku Corporation, priority 1994, dated 1998) are described below.

Assay [1] deals with enzyme of the present invention (KDNase). Kind of assay: Inhibition and activation of the enzyme, 4-MU-KDN method. The assay is classed as biochemical, Sphingobacterium mOL12-4s. The conditions noted are these: for effect on the activity of the enzyme: added at 1 mM. Here is the method:
Specifically, 1.4 nmol of 4-MU-KDN was added to an enzyme solution prepared by dissolving the enzyme in 20 μl of 0.1M Tris-acetate buffer (pH 6.0)/0.1M NaCl to perform a reaction at 25° C. for 30 minutes. After the reaction, an aliquot of the reaction solution (20 μl) was mixed with 2.5 ml of 85 mM glycine-carbonate buffer (pH 9.3) to measure the fluorescent strength (exciting wavelength: 365 nm, measuring wavelength: 450 nm). For the measurement of the fluorescent strength, reference was made to Biochemistry, Vol. 18, No. 13, pp. 2783-2787. A fluorescent strength, which was obtained when the reaction was performed in the same manner as described above except that the enzyme was not added, was used as control. An amount of the enzyme, which hydrolyzed 1 nmol of 4-MU-KDN per 1 minute at 25° C., was defined as 1 unit.
In order to investigate influences of, for example, inorganic ions and EDTA (ethylenediaminetetraacetic acid) on the activity of the enzyme of the present invention, these compounds were added to the reaction solution to perform the enzyme reaction in accordance with the 4-MU-KDN method.
The influence of the ionic strength on the enzyme of the present invention was investigated.
2,3-Dehydro-2-deoxy-N-acetylneuraminic acid is a specific inhibitor for known sialidase which cleaves the ketosidic linkage formed by N-acylneuraminic acid.

Assay [2] shares this test system. Kind of assay: Substrate specificity: cleavage of ketosidic linkage, detected by thin layer chromatography. It counts as biochemical, Sphingobacterium mOL12-4s. Also noted: key to Presence or absence of cleavage: Those in which KDN, Neu5Ac, or Neu5Gc was liberated are indicated by "+"; those in which KDN, Neu5Ac, or Neu5Gc was not liberated at all are indicated by "-". The conditions noted are these: for Presence or absence of cleavage: substrate corresponding to 5 μg KDN, Neu5Ac or Neu5Gc, enzyme 80 milliunits, 25° C., 20 hours, pH 6.0, 0.1M NaCl. Here is the method:
The reactivity of the enzyme of the present invention was investigated for various KDN-containing complex carbohydrates and carbohydrates and sialic acid-containing complex carbohydrates and carbohydrates.
Each of the foregoing complex carbohydrates or carbohydrates containing KDN or sialic acid, which corresponded to 5 μg of KDN or N-acetylneuraminicacid (Neu5Ac) or N-glycolylneuraminic acid (Neu5Gc), was allowed to coexist with the enzyme of the present invention (80 milliunits) at 25° C. for 20 hours in 10 μl of 0.1M Tris-acetate buffer (pH 6.0) containing 0.1M NaCl.
The reaction solution was spotted on a plate for silica gel thin layer chromatography (produced by Merck), and developed for 7 hours with 1-propanol: 25% aqueous ammonia: water=6:1:2.5 (volume ratio). After the development, the plate was dried, on which 10% sulfuric acid ethanol solution was sprayed. The plate was heated at 120° C. to cause color development for the complex carbohydrates or carbohydrates and liberated KDN, Neu5Ac, or Neu5Gc. A control was provided, in which the reaction was performed without addition of the enzyme. Those in which KDN, Neu5Ac, or Neu5Gc was liberated are indicated by "+", and those in which KDN, Neu5Ac, or Neu5Gc was not liberated at all are indicated by "-".

The subject of assay [3] is Sphingobacterium mOL12-4s. The assay can be described thus: Induction of KDNase in Sphingobacterium mOL12-4s. The conditions noted are these: for Number of cells: 0.1% (w/v) added substance in M9 liquid medium, 6.1×10^10 cells inoculated; for Number of cells / KDNase activity per cells / Number of cells, ratio to before addition (value in []) / KDNase activity: 25° C., 24 hours; for Number of cells, ratio to before addition (value in []): before addition = 1; for KDNase activity: supernatant of disrupted cells; for fold induction at 1000 µg/mL: 24 h. As to the method: Bacterial cells (4.0×10^8) of Sphingobacterium mOL12-4s were inoculated into 40 ml of M9 liquid medium containing 1% (w/v) casein hydrolysate (casamino acid, produced by Gibco) and 1% (w/v) glucose (Glc), and cultivated at 25° C. for 44 hours. Microbial cells (bacterial cells) at the growth phase were collected, and washed twice with M9 liquid medium. The microbial cells (6.1×10^10 cells) were inoculated into 2.0 ml of M9 liquid medium containing 0.1% (w/v) crude KDN-OS, KDN-OS, KDN, Neu5Ac, acid hydrolysate of colominic acid (oligo-Neu5Ac; Kitazume, S. et al., Anal. Biochem., 202, 25-34 (1992)), or Glc, and incubated at 25° C. for 24 hours to measure the number of growable cells and the KDNase activity. The number of cells was determined by diluting each incubated cell cultivation liquid to inoculate an obtained diluted solution into an LB agar medium plate, and counting a number of grown colonies (Kitajima, K. et al., J. Biol. Chem., 269, 21415-21419). In order to measure the KDNase activity of the cells, the cells were collected by means of centrifugation at 5,000 rpm or 1,500× g for 10 minutes. The collected cells were suspended in 0.5 ml of 100 mM Tris-acetate buffer (pH 6.0) containing 100 mM NaCl, and disrupted by means of ultrasonication (50 watts, 1 minute). The disrupted preparation was centrifuged at 10,000 rpm or 6,000× g for 10 minutes to subsequently obtain a supernatant for which the KDNase activity was measured. The numerical value in [] in Table 1 indicates a ratio provided that the activity before the addition is regarded as 1.

Assay [4] deals with enzyme of the present invention (KDNase). Kind of assay: Measurement of Michaelis constant and Vmax with 4-MU-KDN as substrate. It counts as biochemical, Sphingobacterium mOL12-4s. The note with it: 25° C.; for Vmax: pH 6.0. Here is the method:
The Michaelis constant (Km) and the maximum enzyme reaction velocity (Vmax) were determined on condition that 4-methylumbelliferyl KDN (4-MU-KDN) was used as a substrate for the enzyme of the present invention. The enzyme (32 milliunits) and the substrate (4-MU-KDN, 6.7 μM) were reacted at 25° C. in 216 μl of a reaction solution (0.1M Tris-acetate buffer (pH 6.0)/0.1M NaCl containing 0.1 mg/ml of bovine serum albumin). As a result, 4-methylumbelliferone (4-MU) was liberated linearly within 1 hour.
At this enzyme concentration, initial reaction velocities were measured by performing the reaction at 25° C. for 30 minutes in the same reaction solution as described above while variously changing the concentration of 4-MU-KDN in a range of 21 to 167 μM. A Lineweaver-Burkplot was obtained, and thus the Michaelis constant was calculated.

Where [5] appears, read: read-out: KDNase activity per cells, ratio to before addition (value in []).
The mark [6] stands for this setting: read-out: KDNase activity, ratio to before addition (value in []).

Entries after “also recorded” stand apart in the source; their conditions may differ. Like-named read-outs stand apart in the source and are kept apart here.

Take `[Ca+2]` [calcium ion]: the “effect on the activity of the enzyme” value in assay [1] was “not affected”.
As for `[Mg+2]` [magnesium ion], the “effect on the activity of the enzyme” value in assay [1] was “not affected”.
As to colominic acid, the “Presence or absence of cleavage” value in assay [2] is on record as “-”.
As for Triton X-100, the “inhibition of the enzyme” value in assay [1] (concentration not given) is on record as “not inhibited; also recorded: does not inhibit”.
Consider `O=C(O)C1(O)C[C@H](O)[C@@H](O)[C@H]([C@H](O)[C@H](O)CO)O1` (stereo partly drawn) [KDN, 3-deoxy-D-glycero-D-galacto-nonulosonic acid], for which, in assay [3] (0.1% (w/v)), the “induction of KDNase (in words)” value is “induced KDNase”; the “KDNase activity per cells” value was 11 milliunit/10^10 cells; the “Number of cells, ratio to before addition (value in [])” value (“Number of cells, ratio” for short) came out at 0.59; the KDNase activity came to 38 milliunit. In addition, the Number of cells in assay [3] is recorded as 3.6 × 10^10. Moreover, the fold induction at 1000 µg/mL in assay [3] (setting [5]) was found to be 3.3. In addition, the fold induction at 1000 µg/mL in assay [3] (setting [6]) is 1.9. The “inhibition of the enzyme” value in assay [1] (3 mM) is on record as “inhibited”. In assay [1] (concentration not given), the “inhibition of the enzyme” value is given as “inhibited”.
As to `[Cl-].[Na+]` [NaCl], the “enzyme activity at low ionic strength” value in assay [1] (50 mM or less) is “extremely low”. Moreover, the “concentration giving maximum enzyme activity (ionic strength)” value in assay [1] (FIG. 10) is recorded as 300 mM.
`CC(=O)NC(CO)C(OC1OC(CO)C(O)C(O)C1O)C(O)C(O)COC1(C(=O)O)CC(O)C(NC(C)=O)C(C(O)C(O)CO)O1` (stereo not drawn) [Neu5Acα2→6(Galβ1→3)GalNAcol]: the “Presence or absence of cleavage” value in assay [2] is “-”.
Turning to `CC(=O)N[C@H]1[C@H]([C@H](O)[C@H](O)CO)OC(O)(C(=O)O)C[C@@H]1O` (stereo partly drawn) [Neu5Ac, N-acetylneuraminic acid], in assay [3], the Number of cells is listed as 2.5 × 10^10. Moreover, in assay [3] (0.1% (w/v)), the “KDNase activity per cells” value turned out to be 6.0 milliunit/10^10 cells; the “Number of cells, ratio” value is given as 0.41; the KDNase activity is 15 milliunit. Also, in assay [3] (setting [5]), the fold induction at 1000 µg/mL amounted to 1.8. Besides, in assay [3] (setting [6]), the fold induction at 1000 µg/mL amounted to 0.75.
`O=C(CO)NC1C(O)CC(OC(CO)C(O)C2OC(O)(C(=O)O)CC(O)C2NC(=O)CO)(C(=O)O)OC1C(O)C(O)CO` (stereo not drawn) [Neu5Gc dimer, N-glycolylneuraminic acid (Neu5Gc) dimer]: in assay [2], the “Presence or absence of cleavage” value is reported as “-”.
On to `O=C(O)CN(CCN(CC(=O)O)CC(=O)O)CC(=O)O` [EDTA, ethylenediaminetetraacetic acid], for which, in assay [1], the “effect on the activity of the enzyme” value was “not affected”.
`CC(=O)N[C@H]1[C@H]([C@H](O)[C@H](O)CO)OC(O)(C(=O)O)C[C@@H]1O` (stereo partly drawn) [free sialic acid, sialic acid]: in assay [1] (concentration not given), the “inhibition of the enzyme” value is on record as “not inhibited”.
Turning to “N-Acetylneuraminic acid lactose [Neu5Ac lactose]”, the “Presence or absence of cleavage” value in assay [2] is “-”.
On to `O=C[C@H](O)[C@@H](O)[C@H](O)[C@H](O)CO` [Glc, glucose], for which the Number of cells in assay [3] is recorded as 1.7 × 10^12. Moreover, in assay [3] (0.1% (w/v)), the “KDNase activity per cells” value came to 0.47 milliunit/10^10 cells; the “Number of cells, ratio” value is 28; the KDNase activity worked out at 80 milliunit. Also, the fold induction at 1000 µg/mL in assay [3] (setting [5]) stood at 0.14. Moreover, in assay [3] (setting [6]), the fold induction at 1000 µg/mL was found to be 4.
For the molecule `O=C(O)C1(O)CC(O)C(O)C(C(O)C(CO)OC2(C(=O)O)CC(O)C(O)C(C(O)C(O)CO)O2)O1` (stereo not drawn) [KDN dimer, KDNα2→8KDN], the “Presence or absence of cleavage” value in assay [2] is recorded as “+”.
For the molecule `C[C@H](CCC(=O)O)[C@H]1CC[C@H]2[C@@H]3[C@H](O)C[C@@H]4C[C@H](O)CC[C@]4(C)[C@H]3C[C@H](O)[C@]12C` [sodium cholate], the enzyme activity maintained entry in assay [1] (0.1%, 30 min) is given as “about 90%”. In addition, the “enzyme activity in the presence of the additive” value in assay [1] (0.5%) is “substantially disappeared; also recorded: disappears”.
With `CC(=O)N[C@H]1[C@H]([C@H](O)[C@H](O)CO)OC(C(=O)O)=C[C@@H]1O` [2,3-dehydro-2-deoxy-N-acetylneuraminic acid], the “inhibition of the enzyme” value in assay [1] (concentration not given) is on record as “not inhibited”.
For `Cc1cc(=O)oc2cc(OC3(C(=O)O)C[C@H](O)[C@@H](O)[C@H]([C@H](O)[C@H](O)CO)O3)ccc12` (stereo partly drawn) [4-MU-KDN, 4-methylumbelliferyl KDN], the Vmax in assay [4] turned out to be 7.4 mM/min/mg protein; in assay [4] (enzyme 32 milliunits in 216 μl) it was 0.19 µM/min. Also, the Km in assay [4] (pH 6.0, 0.1M NaCl, 0.1 mg/ml BSA, Lineweaver-Burk plot, 21 to 167 μM substrate) amounted to 19 µM. Moreover, the “action of the enzyme on the ketosidic linkage (in words)” value in assay [2] is recorded as “acts on”; in assay [2] (listed as 4-methylumbelliferyl KDN), “can also act on”. Moreover, the “Presence or absence of cleavage” value in assay [2] was “+”.
Take `[Mn+2]` [manganese ion]: in assay [1], the “effect on the activity of the enzyme” value is reported as “not affected”.
As to “human transferrin: human transferrin purchased from Sigma”, the “Presence or absence of cleavage” value in assay [2] is listed as “-”.
On to “fetal bovine serum fetuin: fetal bovine serum fetuin purchased from Sigma”, for which the “Presence or absence of cleavage” value in assay [2] was “-”.
For the molecule “KDNα2→3Galβ1→4Glcβ1→Cer [KDN-containing ganglioside GM3]”, the “Presence or absence of cleavage” value in assay [2] is given as “+”.
As for `CC(=O)NC1C(O)CC(OC(CO)C(O)C2OC(O)(C(=O)O)CC(O)C2NC(C)=O)(C(=O)O)OC1C(O)C(O)CO` (stereo not drawn) [Neu5Ac dimer, N-acetylneuraminic acid (Neu5Ac) dimer], the “Presence or absence of cleavage” value in assay [2] is listed as “-”.
Same read-out and setting: with `CC(=O)NC1C(O)CC(Oc2ccc3c(C)cc(=O)oc3c2)(C(=O)O)OC1C(O)C(O)CO` (stereo not drawn) [4-MU-Neu5Ac, 4-Methylumbelliferyl Neu5Ac] the entry was “-”.
